According to patent US6551790B2, “Process for glucuronidation screening” (PanVera LLC, priority 1998, dated 2003):
Changes are numbered by the printed parent chain. Names and notes keep the numbering of the source. “Also recorded” adds a separate entry of the source. Like-named read-outs stand apart in the source and are kept apart here.

Columns and labels:
[1] = molecular target: T1, bacterial β-glucuronidase (Escherichia coli, UniProt P05804); settings: read-out: apparent Km value for cleavage by β-glucuronidase; linear conditions of protein concentration and incubation time; FIG. 1
T1 sequence (P05804 whole entry): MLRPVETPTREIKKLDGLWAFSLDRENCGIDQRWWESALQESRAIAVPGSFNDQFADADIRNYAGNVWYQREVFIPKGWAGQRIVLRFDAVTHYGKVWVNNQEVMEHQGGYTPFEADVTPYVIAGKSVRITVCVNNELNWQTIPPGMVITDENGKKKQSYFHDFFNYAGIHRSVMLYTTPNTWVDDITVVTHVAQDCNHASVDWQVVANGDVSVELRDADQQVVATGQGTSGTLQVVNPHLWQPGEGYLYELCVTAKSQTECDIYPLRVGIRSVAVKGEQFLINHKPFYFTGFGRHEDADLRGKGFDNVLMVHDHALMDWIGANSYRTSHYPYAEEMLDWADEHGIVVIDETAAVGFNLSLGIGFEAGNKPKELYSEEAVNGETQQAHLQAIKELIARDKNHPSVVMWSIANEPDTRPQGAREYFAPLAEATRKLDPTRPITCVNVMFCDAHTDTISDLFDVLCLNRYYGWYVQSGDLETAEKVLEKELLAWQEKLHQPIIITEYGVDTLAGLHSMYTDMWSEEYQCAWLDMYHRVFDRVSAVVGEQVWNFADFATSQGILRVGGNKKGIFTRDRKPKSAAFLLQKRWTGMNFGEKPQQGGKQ

recombinant human UGT1A6 = recombinant human UGT1A6 (Homo sapiens, UniProt P19224)
Sequence of recombinant human UGT1A6 (P19224 27-532): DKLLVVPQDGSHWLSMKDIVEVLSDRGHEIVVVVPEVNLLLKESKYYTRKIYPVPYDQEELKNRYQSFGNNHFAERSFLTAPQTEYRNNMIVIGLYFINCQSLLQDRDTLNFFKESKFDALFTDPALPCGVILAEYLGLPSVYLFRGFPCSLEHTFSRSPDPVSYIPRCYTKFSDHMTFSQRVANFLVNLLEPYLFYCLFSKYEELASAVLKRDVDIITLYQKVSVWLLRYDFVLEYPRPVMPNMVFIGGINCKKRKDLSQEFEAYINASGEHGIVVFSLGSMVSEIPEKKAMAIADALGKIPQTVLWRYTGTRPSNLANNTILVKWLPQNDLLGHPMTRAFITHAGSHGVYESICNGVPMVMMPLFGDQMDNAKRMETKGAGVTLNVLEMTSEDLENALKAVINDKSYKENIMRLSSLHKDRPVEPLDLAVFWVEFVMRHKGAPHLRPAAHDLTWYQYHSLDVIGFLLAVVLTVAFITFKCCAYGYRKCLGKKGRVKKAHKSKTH
Description: Two approaches were taken to test the feasibility of coupling the UGT-dependent production of glucuronides to inhibition of fluorescent product formation by β-D-glucuronidase. The first involved extracting the UGT reaction products and adding them to the β-D-glucuronidase fluorescence assay reagents. The second involved adding the β-D-glucuronidase reaction components directly to the quenched UGT reaction. […] Following extraction, 4-methylumbelliferyl-β-D-glucuronide assay reagents were added to the extracted, dried reaction residues.
In the second approach, 4-methylumbelliferyl-β-D-glucuronide assay reagents were added directly to a β-naphthyl glucuronidation assay that was performed in a 96 well plate. […] The horogeneous format circumvented the need for extraction, but required longer incubation periods with the recombinant enzyme.
After identifying a suitable β-glucuronidase and determining the optimal concentrations of vious assay components, the fluorescent assay was tested for its ability to detect β-glucuronides generated by a recombinant UGT enzyme. […] To establish the feasibility of performing the assay in an HTS format, the assay was conducted in a 96 well plate in a homogenous format, i.e., without extracting the glucuronide produced in the UGT reaction prior to starting the β-glucuronidase reaction.

[2] = molecular target: T1, bacterial β-glucuronidase; test: Inhibition of 4-methylumbelliferyl-β-D-glucuronide cleavage by β-D-glucuronides; assay type: biochemical; set-up: purchased Sigma, St. Louis Mo; G-7396; settings: for inhibition of 4-methylumbelliferyl-β-D-glucuronide cleavage (production of 4-methylumbelliferone): FIG. 2, varying glucuronide concentrations
Description: FIG. 2 depicts the effect of varying concentrations of β-D-glucuronide on the ability of β-glucuronidase to cleave various substrates.
Tetrahydrocortisone 3-β-D-glucuronide was obtained from Molecular Probes, Eugene, Oreg. Recombinant control and UGT1A6 membrane preparations were generated and are commercially available from PanVera Corporation, Madison Wis. All other reagents were analytical grade or better and purchased from a variety of commercial sources.
In order to show the feasibility of developing a high throughput inhibition assay, we examined the potential of a variety of structurally dissimilar, commercially available β-D-glucuronides to act as inhibitors for the cleavage of 4-methylumbelliferyl-β-D-glucuronide. These β-D-glucuronides represent compounds that might potentially be formed by UGT activity e.g. phenol and steroid glucuronides.

UGT2B7Y(268) [3] = molecular target: T2, UGT2B7Y(268) (Homo sapiens, UniProt P16662); test: Kinetics of glucuronidation, membrane preparations of HK293 cells stably expressing UGT2B7Y(268)
T2 sequence (P16662 24-529): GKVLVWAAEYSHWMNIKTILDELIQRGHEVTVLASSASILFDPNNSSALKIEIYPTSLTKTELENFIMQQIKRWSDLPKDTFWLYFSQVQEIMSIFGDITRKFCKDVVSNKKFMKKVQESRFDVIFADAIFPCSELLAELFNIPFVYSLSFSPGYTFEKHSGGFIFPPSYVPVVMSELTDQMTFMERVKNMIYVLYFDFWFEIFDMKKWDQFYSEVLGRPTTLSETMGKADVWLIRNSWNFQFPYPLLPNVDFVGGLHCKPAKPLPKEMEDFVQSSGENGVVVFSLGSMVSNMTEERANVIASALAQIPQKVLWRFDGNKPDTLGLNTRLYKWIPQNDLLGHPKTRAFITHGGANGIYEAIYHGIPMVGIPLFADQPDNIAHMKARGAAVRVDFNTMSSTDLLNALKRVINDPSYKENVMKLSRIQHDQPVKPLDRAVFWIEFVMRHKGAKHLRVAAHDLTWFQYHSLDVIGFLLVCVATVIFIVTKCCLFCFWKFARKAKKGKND

UGT2B7H(268) [4] = molecular target: T3, UGT2B7H(268) (Homo sapiens, UniProt P16662, Y268H); test: Kinetics of glucuronidation, membrane preparations of HK293 cells stably expressing UGT2B7H(268)
T3 sequence (P16662 24-529 Y268H): T2 sequence (P16662 24-529) with Y245H

UGT2B7Y(268) [5] = molecular target: T2, UGT2B7Y(268)
UGT2B7Y(268) [6] = molecular target: T2, UGT2B7Y(268); test: in vitro
UGT2B7H(268) [7] = molecular target: T3, UGT2B7H(268)
UGT2B7H(268) [8] = molecular target: T3, UGT2B7H(268); test: in vitro
UGT2B7 = molecular target: T4, UGT2B7 (Homo sapiens, UniProt P16662)
T4 sequence (P16662 24-529): T2 sequence (P16662 24-529)
Description: Heterologous expression and characterization of full length UGT 2B7.
Stable UGT2B7 cell lines were established from embryonic human kidney cells (HK293 cells) and microsomal membrane fractions from these cells were used to assess the properties of the recombinant enzyme. […] The specificity of the purified UGT2B7 will be assessed by determining overall catalytic efficiency with each aglycone substrate, as reflected in a ratio of the two fundamental Michaelis kinetic parameters, Vmax/Km. Reaction rates will be determined over a range of substrate concentrations and nonlinear regression will be used to fit the UGT rate data to velocity versus substrate curves (Graph Pad, Prism). Vmax/Km values will be determined and compared with those determined with the enzyme isolated from HK293 cells (Table 1). […] This ratio will be determined for the purified enzyme using HPLC-based methods for separation and quantification of the two glucuronides.

UGT2B7Y(268) [9] = molecular target: T2, UGT2B7Y(268); settings: reported by one laboratory; cited from earlier work
UGT2B7H(268) [10] = molecular target: T3, UGT2B7H(268); settings: reported by another laboratory; cited from earlier work
[11] = cited from earlier work
[12] = substrate: CN1CC[C@]23c4c5ccc(O)c4O[C@H]2C(=O)CC[C@@]3(O)[C@H]1C5; test: cells, lysate or membranes named
[13] = substrate: O=C1CC[C@@]2(O)[C@H]3Cc4ccc(O)c5c4[C@@]2(CCN3CC2CC2)[C@H]1O5; test: cells, lysate or membranes named; settings: two values = two different passages of cultured cells
[14] = substrate: C=CCN1CC[C@]23c4c5ccc(O)c4O[C@H]2[C@@H](O)C=C[C@H]3[C@H]1C5; test: cells, lysate or membranes named
[15] = substrate: C=CCN1CC[C@]23c4c5ccc(O)c4O[C@H]2C(=O)CC[C@@]3(O)[C@H]1C5; test: cells, lysate or membranes named; settings: two values = two different passages of cultured cells

**Q.** For `Cc1cc(=O)oc2cc(O[C@@H]3O[C@H](C(=O)O)[C@@H](O)[C@H](O)[C@H]3O)ccc12` [4-methylumbelliferyl-β-D-glucuronide], which Km [1] is on record?
**A.** Its Km is roughly 56 µM.

**Q.** Which results are given for `Oc1cccc2ccccc12` [α-naphthol]?
**A.** 4-methylumbelliferyl β-D-glucuronide cleavage slower with UGT1A6 assay compared to control (recombinant human UGT1A6): 60%; non-specific interference of the aglycone with the cleavage assay ([2]; residues from 0 time point extractions, FIG. 3 panel A): does not interfere non-specifically

**Q.** Which Vmax (UGT2B7Y(268) [3]) does the source give for `COc1ccc2c3c1O[C@H]1[C@@H](O)C=C[C@H]4[C@@H](C2)N(C)CC[C@@]341` [codeine] here?
**A.** Its Vmax is 190, 40 pmol/min/mg protein.

**Q.** And the Vmax (UGT2B7H(268) [4])?
**A.** Its Vmax is 97, 110 pmol/min/mg protein.

**Q.** What about the Km (UGT2B7Y(268) [5]; human) of the same molecule?
**A.** The Km was 360 µM.

**Q.** And the Km (UGT2B7Y(268) [6])?
**A.** Its Km is 230 µM.

**Q.** And the Km (UGT2B7H(268) [7]; human)?
**A.** The Km was 550 µM.

**Q.** And the Km (UGT2B7H(268) [8])?
**A.** Its Km is 791 µM.

**Q.** And the “Glucuronidation activity towards opioids” value (UGT2B7)?
**A.** The value was “demonstrated”.

**Q.** What about the “conversion to the 6-O-glucuronide by UGT2B7” value (UGT2B7) of the same molecule?
**A.** Its value is “efficiently converted”.

**Q.** And the “efficiency ratio of glucuronidation, 3-OH to 6-OH” value (UGT2B7; human, pH 7.7)?
**A.** Its value is 7 to 1.

**Q.** Which “Glucuronidation activity towards opioids” value (UGT2B7) does the source give for `C=CCN1CC[C@]23c4c5ccc(O)c4O[C@H]2[C@@H](O)C=C[C@H]3[C@H]1C5` [nalorphine] here?
**A.** Its value is “demonstrated”.

**Q.** What does the source list for `CC1CCC(C(C)C)C(O)C1` (stereo not shown) [menthol]?
**A.** activity toward glucuronide formation (UGT2B7Y(268) [9]): active; activity toward glucuronide formation (UGT2B7H(268) [10]): inactive

**Q.** With `C=CCN1CC[C@]23c4c5ccc(O)c4O[C@H]2C(=O)CC[C@@]3(O)[C@H]1C5` [naloxone] as the molecule, how does the Vmax (UGT2B7Y(268) [3]; UGT2B7Y, two values = two different passages of cultured cells) read?
**A.** Its Vmax is 2550 pmol/min/mg protein.

**Q.** What about the Vmax (UGT2B7H(268) [4]; UGT2B7H, two values = two different passages of cultured cells) of the same molecule?
**A.** Its Vmax is 4530 pmol/min/mg protein.

**Q.** What about the “Glucuronidation activity towards opioids” value (UGT2B7) of the same molecule?
**A.** The value was “demonstrated”.

**Q.** For `C[C@]12CC[C@@H]3c4ccc(O[C@@H]5O[C@H](C(=O)O)[C@@H](O)[C@H](O)[C@H]5O)cc4CC[C@H]3[C@@H]1CC[C@@H]2O` [β-estradiol-3-(β-D-glucuronide)], which “inhibition of 4-methylumbelliferyl-β-D-glucuronide cleavage (production of 4-methylumbelliferone)” value (“inhibition” below) [2] is on record?
**A.** Its value is “strongest”.

**Q.** And the “inhibition” value ([2]; listed as estradiol β-D-glucuronide)?
**A.** Its value is “More potent inhibitors”.

**Q.** For `O=C(O)[C@H]1O[C@H](OP(=O)(O)OP(=O)(O)OC[C@H]2O[C@@H](n3ccc(=O)[nH]c3=O)[C@H](O)[C@@H]2O)[C@H](O)[C@@H](O)[C@@H]1O` [UDPGA, Uridine 5′-diphosphoglucuronic acid], which “inhibition” value [2] is on record?
**A.** The value was “not an effective competitor”.

**Q.** For `O=C1CC[C@@]2(O)[C@H]3Cc4ccc(O)c5c4[C@@]2(CCN3CC2CC2)[C@H]1O5` [naltrexone], which Vmax (UGT2B7Y(268) [3]) is on record?
**A.** Its Vmax is 840, 1130 pmol/min/mg protein.

**Q.** Which “effectiveness as an analgesic relative to the parent compound” value ([11]; clinical studies, versus morphine) does the source give for `CN1CC[C@]23c4c5ccc(O)c4O[C@H]2[C@@H](O[C@@H]2O[C@H](C(=O)O)[C@@H](O)[C@H](O)[C@H]2O)C=C[C@H]3[C@H]1C5` [morphine-6-O-glucuronide] here?
**A.** The value was 2-3 times.

**Q.** With `O=C(O)[C@H]1O[C@@H](Oc2cccc3ccccc23)[C@H](O)[C@@H](O)[C@@H]1O` [α-naphthyl β-D-glucuronide] as the molecule, how does the “inhibition” value [2] read?
**A.** The value was “weakest; also recorded: weak competitor”.

**Q.** And the “inhibition” value ([2]; listed as α-naphthol β-D-glucuronide)?
**A.** Its value is “weak competitive inhibitor”.

**Q.** For `CC(C)NC[C@H](O)COc1cccc2ccccc12` [S-propanolol], which Vmax (UGT2B7Y(268) [3]) is on record?
**A.** Its Vmax is 70, 140 pmol/min/mg protein.

**Q.** What about the Vmax (UGT2B7H(268) [4]) of the same molecule?
**A.** Its Vmax is 148 ± 30 pmol/min/mg protein.

**Q.** And the “Efficiency Vmax/Km (x100)” value (UGT2B7Y(268) [5])?
**A.** Its value is 38, 259.

**Q.** And the “Efficiency Vmax/Km (x100)” value (UGT2B7H(268) [7])?
**A.** Its value is 205.

**Q.** What about the Km (UGT2B7H(268) [7]) of the same molecule?
**A.** The Km was 72 ± 19 µM.

**Q.** Which “Glucuronidation activity towards opioids” value (UGT2B7) does the source give for `CN1CC[C@]23c4c5ccc(O)c4O[C@H]2[C@@H](O)C=C[C@H]3[C@H]1C5` [morphine] here?
**A.** The value was “demonstrated”.

**Q.** With `CC(C)NC[C@@H](O)COc1cccc2ccccc12` [R-propanolol] as the molecule, how does the Vmax (UGT2B7Y(268) [3]) read?
**A.** Its Vmax is 96 pmol/min/mg protein.

**Q.** And the Vmax (UGT2B7H(268) [4])?
**A.** Its Vmax is 194, 86 pmol/min/mg protein.

**Q.** And the “Efficiency Vmax/Km (x100)” value (UGT2B7Y(268) [5])?
**A.** The value was 53.

**Q.** And the Km (UGT2B7Y(268) [5])?
**A.** The Km was 180 µM.

**Q.** What about the “Efficiency Vmax/Km (x100)” value (UGT2B7H(268) [7]) of the same molecule?
**A.** Its value is 192.

**Q.** With `CN1CC[C@]23c4c5ccc(O[C@@H]6O[C@H](C(=O)O)[C@@H](O)[C@H](O)[C@H]6O)c4O[C@H]2[C@@H](O)C=C[C@H]3[C@H]1C5` [morphine-3-O-glucuronide] as the molecule, how does the analgesic effects ([11]; human, in vivo) read?
**A.** The analgesic effects was “devoid of analgesic effects”.

**Q.** And the “effect on the analgesic activity of morphine and morphine-6-O-glucuronide” value ([11]; human, in vivo)?
**A.** The value was “counteract”.

B1: UGT2B7Y(268) (Homo sapiens) (protein)
chain: T2 sequence (P16662 24-529)
**Q.** With B1 as the molecule, how does the Km [12] read?
**A.** Its Km is 1360, 900 μM.

**Q.** And the Vmax [12]?
**A.** Its Vmax is 5640, 6040 pmol/min/mg protein.

**Q.** What about the Km ([13]; other: UGT2B7Y) of the same molecule?
**A.** Its Km is 140, 180 μM.

**Q.** What about the Km [14] of the same molecule?
**A.** The Km was 77, 121 μM.

**Q.** And the Vmax [14]?
**A.** The Vmax was 2870, 3650 pmol/min/mg protein.

**Q.** And the Km ([15]; other: UGT2B7Y)?
**A.** The Km was 50, 40 μM.

**Q.** What about the Vmax ([15]; other: UGT2B7Y) of the same molecule?
**A.** Its Vmax is 3750, 2550 pmol/min/mg protein.

B2: UGT2B7H(268) (Homo sapiens; Y268H) (protein)
chain: T2 sequence (P16662 24-529) with Y245H
**Q.** Which results are given for B2?
**A.** Km [12]: 540, 670 μM; Vmax [12]: 7510, 8570 pmol/min/mg protein; Km ([13]; other: UGT2B7H): 63, 200 μM; Km [14]: 141, 171 μM; Vmax [14]: 3990, 4670 pmol/min/mg protein; Km ([15]; other: UGT2B7H): 41, 60 μM; Vmax ([15]; other: UGT2B7H): 3810, 4530 pmol/min/mg protein
